Experimental data as given in patent publication US20250213471A1, “PEMETREXED DISODIUM LIQUID COMPOSITION, PREPARATION METHOD THEREFOR AND USE THEREOF” (SHANGHAI AURORA BIOTECHNOLOGY CO., LTD., priority 2022, published 2025).
Several values for one entry are separate records, joined by “and”; a condition that tells them apart may be missing. Equal entries are not always repeated.

How the values were obtained:
human plasma protein = test: Human plasma protein binding rate by equilibrium dialysis; settings: positive, 5 μM
guinea pigs = test: Active systemic anaphylaxis experiment in guinea pigs; settings: first challenge
Method: The administration doses were 20 m/kg and 40 mg/kg and were about 1.5 and 3 times of the highest clinical intended dose. The day of the first administration was defined as day 1 of the experiment. Sensitization was performed 1 time every other day. 3 consecutive sensitizations were performed (i.e., sensitization on days 1, 3, and 5 of the experiment). On day 14 and day 21 after the last sensitization (i.e., on day 19 and day 26 of the experiment), the guinea pigs were challenged by intravenous injection at 2 times the dose of the sensitization dose, and the systemic reaction and death after the challenge were observed.

[1] = positive control group (8 mg/mL, 0.5 mL/guinea pig sensitization, i.v.)

Molecule	Binding rate (%) (human plasma protein; human plasma)	Administration side (peak area ratio), Mean (human plasma protein)	Administration side (peak area ratio), single replicates N = 1-3 (human plasma protein)	Receiving side (peak area ratio), Mean (human plasma protein)	Receiving side (peak area ratio), single replicates N = 1-3 (human plasma protein)	T0 h (peak area ratio), Mean (human plasma protein)	T0 h (peak area ratio), single replicates N = 1-3 (human plasma protein)	T5 h (peak area ratio), Mean (human plasma protein)	T5 h (peak area ratio), single replicates N = 1-3 (human plasma protein)	Stability (%) (human plasma protein; T5 h vs T0 h)	Time to death of all guinea pigs after challenge administration (guinea pigs; positive control group)	Anaphylaxis Degree of occurrence (guinea pigs; [1])	Anaphylaxis Incidence (%) (guinea pigs; [1])	Number of symptoms of anaphylaxis and occurrence proportion: 0 (guinea pigs; [1])	Number of symptoms of anaphylaxis and occurrence proportion: 1-4 (guinea pigs; [1])	Number of symptoms of anaphylaxis and occurrence proportion: 5-10 (guinea pigs; [1])	Number of symptoms of anaphylaxis and occurrence proportion: 11-19 (guinea pigs; [1])	Number of symptoms of anaphylaxis and occurrence proportion: 20 (guinea pigs; [1])
CC(C)NCC(O)COc1cccc2ccccc12 (stereo not drawn) [Propranolol]	87.27%	3.774	3.835 and 3.690 and 3.798	0.480	0.486 and 0.480 and 0.475	5.286	5.491 and 5.043 and 5.325	4.896	4.909 and 4.831 and 4.947	92.61%	–	–	–	–	–	–	–	–
Positive control: 8 mg/mL egg white albumin solution, positive control of the anaphylaxis experiment (protein, UniProt P01012 2-386, looked up) Ovalbumin: GSIGAASMEFCFDVFKELKVHHANENIFYCPIAIMSALAMVYLGAKDSTRTQINKVVRFDKLPGFGDSIEAQCGTSVNVHSSLRDILNQITKPNDVYSFSLASRLYAEERYPILPEYLQCVKELYRGGLEPINFQTAADQARELINSWVESQTNGIIRNVLQPSSVDSQTAMVLVNAIVFKGLWEKAFKDEDTQAMPFRVTEQESKPVQMMYQIGLFRVASMASEKMKILELPFASGTMSMLVLLPDEVSGLEQLESIINFEKLTEWTSSNVMEERKIKVYLPRMKMEEKYNLTSVLMAMGITDVFSSSANLSGISSAESLKISQAVHAAHAEINEAGREVVGSAEAGVDAASVSEEFRADHPFLFCIKHIATNAVLFFGRCVSP	–	–	–	–	–	–	–	–	–	–	≤ 7 min	extremely positive	100%	0	0	0	0	6/6
